Earlier results in US20260078132A1, “SOLID FORMS OF AN INHIBITOR OF HIF AND METHODS OF USING SAME” (ONCOSPHERIX INC., priority 2022, published 2026).

Assays:
p300 [1] = biological target: T1, p300 (Homo sapiens, UniProt Q09472)
p300 [2] = biological target: T1, p300; remark: listed apart in the source

T1 sequence (Q09472 whole entry, species assumed): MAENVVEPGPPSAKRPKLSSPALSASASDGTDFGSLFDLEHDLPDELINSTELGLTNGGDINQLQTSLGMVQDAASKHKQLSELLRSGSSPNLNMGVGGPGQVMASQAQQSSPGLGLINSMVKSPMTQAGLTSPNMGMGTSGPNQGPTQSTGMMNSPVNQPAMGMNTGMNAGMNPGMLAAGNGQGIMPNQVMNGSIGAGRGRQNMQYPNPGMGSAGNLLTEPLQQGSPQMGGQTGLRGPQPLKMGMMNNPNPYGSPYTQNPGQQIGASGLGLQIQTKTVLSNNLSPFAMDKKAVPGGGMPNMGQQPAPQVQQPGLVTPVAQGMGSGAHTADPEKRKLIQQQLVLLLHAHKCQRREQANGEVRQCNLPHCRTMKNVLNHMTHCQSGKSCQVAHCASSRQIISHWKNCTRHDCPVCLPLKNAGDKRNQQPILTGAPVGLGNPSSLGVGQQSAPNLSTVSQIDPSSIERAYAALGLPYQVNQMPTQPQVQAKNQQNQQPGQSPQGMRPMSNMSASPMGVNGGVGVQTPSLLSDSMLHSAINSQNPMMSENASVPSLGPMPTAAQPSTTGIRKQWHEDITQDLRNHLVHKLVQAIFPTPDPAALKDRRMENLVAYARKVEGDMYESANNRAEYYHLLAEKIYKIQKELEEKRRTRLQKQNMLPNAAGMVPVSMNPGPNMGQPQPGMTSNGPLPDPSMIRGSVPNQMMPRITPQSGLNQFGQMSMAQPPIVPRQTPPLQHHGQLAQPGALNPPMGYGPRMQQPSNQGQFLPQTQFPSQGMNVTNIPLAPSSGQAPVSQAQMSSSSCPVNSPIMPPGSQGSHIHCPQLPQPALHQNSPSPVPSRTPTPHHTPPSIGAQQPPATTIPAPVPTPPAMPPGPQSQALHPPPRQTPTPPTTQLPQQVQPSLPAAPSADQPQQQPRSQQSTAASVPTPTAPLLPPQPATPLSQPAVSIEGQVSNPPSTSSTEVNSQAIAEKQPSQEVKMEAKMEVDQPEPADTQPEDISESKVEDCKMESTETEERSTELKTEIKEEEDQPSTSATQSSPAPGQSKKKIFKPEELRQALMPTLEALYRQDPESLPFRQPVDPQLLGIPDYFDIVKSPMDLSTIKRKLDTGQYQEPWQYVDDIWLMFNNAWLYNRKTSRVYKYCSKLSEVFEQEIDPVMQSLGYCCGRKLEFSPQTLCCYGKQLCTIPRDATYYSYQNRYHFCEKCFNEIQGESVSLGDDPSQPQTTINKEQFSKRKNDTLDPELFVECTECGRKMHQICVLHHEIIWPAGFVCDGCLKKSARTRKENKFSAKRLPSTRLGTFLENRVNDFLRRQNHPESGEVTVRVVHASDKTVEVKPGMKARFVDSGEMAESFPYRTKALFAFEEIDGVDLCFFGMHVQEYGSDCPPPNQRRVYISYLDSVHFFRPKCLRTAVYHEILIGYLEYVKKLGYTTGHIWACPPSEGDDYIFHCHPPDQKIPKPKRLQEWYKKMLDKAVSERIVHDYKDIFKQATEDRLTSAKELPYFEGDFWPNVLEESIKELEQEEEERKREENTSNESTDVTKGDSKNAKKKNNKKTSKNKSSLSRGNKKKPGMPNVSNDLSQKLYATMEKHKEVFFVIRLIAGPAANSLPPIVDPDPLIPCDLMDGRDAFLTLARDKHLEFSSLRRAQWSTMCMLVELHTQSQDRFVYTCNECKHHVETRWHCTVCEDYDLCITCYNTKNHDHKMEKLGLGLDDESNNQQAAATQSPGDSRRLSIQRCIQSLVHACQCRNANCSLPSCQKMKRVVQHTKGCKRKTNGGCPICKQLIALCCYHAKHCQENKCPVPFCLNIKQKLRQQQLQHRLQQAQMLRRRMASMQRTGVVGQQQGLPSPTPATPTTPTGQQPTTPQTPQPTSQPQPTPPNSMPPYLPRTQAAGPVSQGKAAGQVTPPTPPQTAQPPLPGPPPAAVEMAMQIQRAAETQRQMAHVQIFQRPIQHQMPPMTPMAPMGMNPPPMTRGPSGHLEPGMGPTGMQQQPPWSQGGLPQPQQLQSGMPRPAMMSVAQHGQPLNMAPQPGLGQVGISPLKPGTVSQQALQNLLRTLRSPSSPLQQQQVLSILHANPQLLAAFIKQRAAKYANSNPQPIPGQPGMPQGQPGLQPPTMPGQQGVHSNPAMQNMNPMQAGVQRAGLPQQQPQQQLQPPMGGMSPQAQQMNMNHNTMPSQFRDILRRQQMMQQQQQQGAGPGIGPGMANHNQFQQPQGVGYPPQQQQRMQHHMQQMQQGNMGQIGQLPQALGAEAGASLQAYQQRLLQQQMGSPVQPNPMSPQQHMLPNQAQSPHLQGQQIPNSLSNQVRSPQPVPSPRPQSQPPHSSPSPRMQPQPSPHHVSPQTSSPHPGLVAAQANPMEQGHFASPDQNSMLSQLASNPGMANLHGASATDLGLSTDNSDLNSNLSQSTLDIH

binding to p300 (p300 [1]): binding of Compound 9 to p300
pull-down of p300 (p300 [2]): pull-down of p300 by Compound 9
Structure (SMILES): COc1ccc(S(=O)(=O)N(Cc2ccc3c(n2)C=CC(C)(C)O3)C2CCC2)cc1OC [Compound 9, N-Cyclobutyl-N-((2,2-dimethyl-2H-pyrano[3,2-b]pyridin-6-yl)methyl)-3,4-dimethoxybenzenesulfonamide]
